# Source: patent US9861635B2, “Macrocycles as kinase inhibitors” (Merck Patent GmbH, priority 2013, dated 2018)
# Biological target: T1, GCN2 (Homo sapiens, UniProt Q9P2K8)
# Assay: GCN2 enzyme assay (TR-FRET Lanthascreen, GFP-eIF2alpha substrate)
# Assay type: biochemical
# Settings: 10 μM ATP, 80 nM GFP-eIF2a, 30 nM GCN2
# Description: GCN2: Assay Principle & Conditions
# This assay can quantificate the activity of the serin kinase GCN2 (general control non-derepressible-2).
# This kinase is involved in the stress metabolism of cells. It is activated upon starvation (amino acid depletion). Its natural substrate is eIF2a (eukaryotic initiation factor 2 alpha subunit), a translation factor, which gets activated (phosphorylated) by GCN2 in case of an amino acid bottleneck in the cells. This in turn leads to a halt of the protein synthesis. Inhibition of GCN2 results in stopping this mechanism: The cell can not stop protein production upon “starvation” stress.
# The assay is run in two steps: the enzymatic reaction and the detection step. In the first step GCN2 is incubated with 10 μM ATP and 80 nM of the GFP-labelled substrate eIF2alpha at room temperature.
# The enzymatic reaction is stopped by addition of EDTA. The amount of phosphorylated eIF2alpha is determined by TR-FRET (Lanthascreen): A complex is formed consisting of antibody and GFP labelled phospho-eIF2a, which allows a FRET upon excitation at 340 nm.
# The GCN2-activity is directly proportional to the ratio of fluorescence units at the emission wavelength 520 nm (phosphopeptide-sensitive wavelength=emission of GFP) to the units at 495 nm (reference wavelength=emission of Terbium-chelate).
# Final Concentrations in the Enzymatic Reaction
# T1 sequence (Q9P2K8 whole entry): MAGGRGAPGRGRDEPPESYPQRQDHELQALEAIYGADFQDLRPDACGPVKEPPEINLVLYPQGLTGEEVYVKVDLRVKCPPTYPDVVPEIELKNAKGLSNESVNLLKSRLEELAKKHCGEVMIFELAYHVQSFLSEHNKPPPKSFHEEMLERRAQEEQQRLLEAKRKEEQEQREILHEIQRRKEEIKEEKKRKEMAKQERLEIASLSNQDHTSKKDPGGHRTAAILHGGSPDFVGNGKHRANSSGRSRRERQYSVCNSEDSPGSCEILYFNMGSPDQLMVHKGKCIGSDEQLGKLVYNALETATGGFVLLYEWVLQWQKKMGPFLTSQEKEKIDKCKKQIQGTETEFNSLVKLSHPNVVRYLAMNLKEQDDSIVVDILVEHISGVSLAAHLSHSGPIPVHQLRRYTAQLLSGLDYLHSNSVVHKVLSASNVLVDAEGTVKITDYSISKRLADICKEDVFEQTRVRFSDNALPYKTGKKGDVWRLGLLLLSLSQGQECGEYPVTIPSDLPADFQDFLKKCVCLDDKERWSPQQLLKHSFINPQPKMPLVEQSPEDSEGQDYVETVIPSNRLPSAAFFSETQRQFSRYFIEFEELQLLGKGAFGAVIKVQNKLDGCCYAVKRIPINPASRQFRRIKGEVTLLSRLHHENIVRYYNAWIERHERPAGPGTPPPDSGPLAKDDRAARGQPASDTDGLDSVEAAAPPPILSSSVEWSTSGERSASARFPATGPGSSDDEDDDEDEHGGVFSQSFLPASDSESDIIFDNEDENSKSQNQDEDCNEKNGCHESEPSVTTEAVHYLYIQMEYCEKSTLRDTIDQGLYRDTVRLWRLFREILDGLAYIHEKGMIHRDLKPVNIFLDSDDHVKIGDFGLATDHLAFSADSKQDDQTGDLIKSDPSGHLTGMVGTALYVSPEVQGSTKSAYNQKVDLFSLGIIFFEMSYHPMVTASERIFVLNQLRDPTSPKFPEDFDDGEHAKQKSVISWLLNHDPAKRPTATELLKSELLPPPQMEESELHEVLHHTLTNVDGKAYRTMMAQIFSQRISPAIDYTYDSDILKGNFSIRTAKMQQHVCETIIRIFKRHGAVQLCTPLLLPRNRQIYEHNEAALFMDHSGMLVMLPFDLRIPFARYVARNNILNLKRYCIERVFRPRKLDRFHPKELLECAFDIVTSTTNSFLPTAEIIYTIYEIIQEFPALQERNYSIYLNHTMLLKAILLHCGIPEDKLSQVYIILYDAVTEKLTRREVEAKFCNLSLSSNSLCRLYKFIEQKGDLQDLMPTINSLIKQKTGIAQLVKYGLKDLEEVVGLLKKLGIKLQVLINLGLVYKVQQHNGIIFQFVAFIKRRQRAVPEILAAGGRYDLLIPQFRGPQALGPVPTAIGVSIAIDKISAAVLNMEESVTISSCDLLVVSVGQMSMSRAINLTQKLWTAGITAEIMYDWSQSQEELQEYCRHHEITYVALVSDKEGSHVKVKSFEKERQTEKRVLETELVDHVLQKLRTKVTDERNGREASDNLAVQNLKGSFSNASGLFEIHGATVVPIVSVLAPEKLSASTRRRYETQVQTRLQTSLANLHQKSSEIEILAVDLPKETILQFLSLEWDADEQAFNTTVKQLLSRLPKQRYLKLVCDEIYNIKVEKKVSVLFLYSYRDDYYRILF
row,SMILES,IC50 [nM]
1,O=C1CCCn2cc(cn2)Nc2ncc3nnn(c3n2)-c2cnn(c2)CCCN1 [Compound A23],< 1000
2,O=C1CCCOc2ccc(cc2)-n2cnc3cnc(nc32)Nc2ccc(cc2)OCCCN1 [Compound A15],< 1000
3,O=C1CCCOc2ccc(cc2)-n2nnc3cnc(nc32)Nc2ccc(cc2)CCCN1 [Compound A6],1000 to 5000
4,"O=C1CCOc2ccc(cc2)-n2nnc3cnc(nc32)Nc2cnn(c2)CCCN1 [Compound A1, 2,7-diaza-11-oxa-3H-1(5,3)-[1,2,3]triazolo[4,5-d]pyrimidina-1H-3(4,1)-pyrazola-12(1,4)-benzenacyclododecaphane-8-one]",< 1000
5,O=C1CCCn2cc(cn2)Nc2ncc3nnn(c3n2)-c2ccc(cc2)CN1 [Compound A22],1000 to 5000
6,O=C1CCCOc2ccc(cc2)-n2nnc3cnc(nc32)Nc2cnn(c2)CCN2CCN(CCCN1)CC2 [Compound A21],< 1000
7,O=C1CCn2cc(cn2)-n2nnc3cnc(nc32)Nc2ccc(cc2)OCCCCN1 [Compound A9],5000 to 10000
8,O=C1CCCOc2ccc(cc2)-n2nnc3cnc(nc32)Nc2cccc(c2)OCCCN1 [Compound A13],< 1000
9,O=C1CCCOc2ccc(cc2)-n2cnc3cnc(nc32)Nc2cnn(c2)CCCN1 [Compound A14],< 1000
10,O=C1CCCOc2ccc(cc2)-n2nnc3cnc(nc32)Nc2cnn(c2)CCCN1 [Compound A2],< 1000
11,O=C1CCCOc2ccc(cc2)-n2cnc3cnc(nc32)Nc2cnn(c2)CCCO1 [Compound A20],1000 to 5000

# Other lines, results leading:
row,IC50 [nM],SMILES
1,< 1000,c1cc2ccc1CCNCCCCn1cc(cn1)Nc1ncc3nnn-2c3n1 [Compound A25]
2,< 1000,CN1CCCCn2cc(cn2)Nc2ncc3nnn(c3n2)-c2ccc(cc2)OCCCCC1=O [Compound A12]
3,< 1000,O=C1CCCCOc2ccc(cc2)-n2cnc3cnc(nc32)Nc2ccc(cc2)OCCCN1 [Compound A16]
4,1000 to 5000,O=C1CCCc2ccc(cc2)Nc2ncc3ncn(c3n2)-c2ccc(cc2)OCCCCN1 [Compound A27]
5,< 1000,O=C1CCCCOc2ccc(cc2)Nc2ncc3nnn(c3n2)-c2cnn(c2)CCCN1 [Compound A7]
6,< 1000,O=C1CCCCOc2ccc(cc2)-n2cnc3cnc(nc32)Nc2ccc(cc2)CCCN1 [Compound A19]
7,< 1000,O=C1CCCn2cc(cn2)Nc2ncc3nnn(c3n2)-c2ccc(cc2)OCCCN1 [Compound A24]
8,5000 to 10000,O=C1CCOc2ccc(cc2)-n2nnc3cnc(nc32)Nc2ccc(cc2)CCCN1 [Compound A5]
9,1000 to 5000,O=C1CCCCOc2ccc(cc2)-n2nnc3cnc(nc32)Nc2cnn(c2)CCC2CCN1CC2 [Compound A17]
10,< 1000,O=C1CCCOc2ccc(cc2)-n2nnc3cnc(nc32)Nc2ccc(cc2)OCCCCN1 [Compound A4]
11,< 1000,O=C1CCCOc2ccc(cc2)-n2cnc3cnc(nc32)Nc2ccc(cc2)CCCN1 [Compound A18]
12,5000 to 10000,O=C1CCn2cc(cn2)-n2nnc3cnc(nc32)Nc2ccc(cc2)OCCCN1 [Compound A8]
13,< 1000,c1nn2cc1Nc1ncc3nnn(c3n1)-c1ccc(cc1)OCCNCCC2 [Compound A10]
14,< 1000,O=C1CCCCOc2ccc(cc2)-n2nnc3cnc(nc32)Nc2cnn(c2)CCCN1 [Compound A26]
15,1000 to 5000,O=C1COc2ccc(cc2)-n2nnc3cnc(nc32)Nc2cnn(c2)CCCN1 [Compound A3]
16,< 1000,O=C1CCn2cc(cn2)-n2nnc3cnc(nc32)Nc2cccc(c2)OCCCN1 [Compound A11]

# Biological target: T1, GCN2
# Assay: Cellular assay of GCN2 activity (phospho-eIF2alpha immunocytochemistry in U2OS cells, tryptophanol)
# Assay type: cell-based
# Design: endogenous in cells; host or cells: U2OS
# Settings: 2 h compound, 600 μM tryptophanol 30 min
# Protocol: Cellular Assay for the Determination of Compound Activities
# Human U2OS cells (2000 cells/well) are seeded into 384-well plates and incubated for 20 hours.
# The next day, the cells are treated with the test compounds and incubated for 2 hours. Then, tryptophanol, at a final concentration of 600 μM, is added to the cells and those are incubated for 30 minutes.
# The analysis of cellular GCN2 activities is done by immunocytochemistry. Briefly, cells are fixated on the well surfaces by formaldehyde and permeabilized with Triton X-100. The primary antibody (anti-phospho-eIF2alpha (Ser51, Cell Signalling Technology, #3398) is incubated on the treated cells for 20 hours, followed by a 60 minutes incubation of the secondary antibody (anti-rabbit-IgG-Alexa 488; Molecular Probes #11008).
# The analysis and quantification of phosphorylated GCN2 is done by scanning the plates in the Acumen Explorer system (TTPLabtech). The obtained data are normalised against the untreated control wells (DMSO only) and expressed as % effect values. The determination of IC50 values is done by using the Graph Pad Prism software.
row,IC50 [nM],SMILES
1,< 1000,O=C1CCCCOc2ccc(cc2)-n2nnc3cnc(nc32)Nc2cnn(c2)CCCN1 [Compound A26]
